# In patent US4062731A, “Production of uricase from micrococcus luteus” (Eastman Kodak Company, priority 1976, dated 1977):
# Molecular target: uricase from Micrococcus luteus NRRL B-8166
# Experiment: Spectrophotometric uricase assay (disappearance of uric acid at 290 nm)
# Assay type: biochemical
# Details: assay in 50 mM KPi buffer pH 8.6, 30° C; read-out: inhibition constant for oxonate
# Description: Uricase was assayed spectrophotometrically by following the disappearance of uric acid at 290 nm using a modification of the procedure described by Mahler et. al, J. Biol. Chem., p. 625, 216 (1955). Assay tubes contained 2.7 ml 50 mM KPi buffer pH 8.6, 0.1 mM sodium EDTA, 0.05 ml 6 mM urate, plus enzyme and water to give a final volume of 3.0 ml. Changes or additions to the assay mixtures were made when necessary. Tubes were incubated for 5 minutes at 30° C; the reaction was started by adding enzyme. Molar extinction coefficient for uric acid at 290 nm is 12,300. Activity was expressed in units of uricase activity, where a unit is that amount of enzyme which catalyzes the oxidation of one μmole of uric acid per minute at 30° C and pH 8.6.
smiles,measurement,value
O=C(O)c1nc(=O)[nH]c(=O)[nH]1 [oxonate],Ki,4.5 µM
